Assay results published in patent publication US5493007A, “Platelet aggregation inhibitors having high specificity for GPIIBIIIA” (Genentech, Inc., priority 1994, dated 1996).
Where a SMILES comes first, the peptide text is derived from it. Bridges are numbered along the chain shown (N, C = ends). [ ]: non-standard residue; d: D form. The star is where a group is joined. Aad = N[C@@H](CCCC(=O)O)C(=O)O; Pen = CC(C)(S)[C@H](N)C(=O)O; dOrn = NCCC[C@@H](N)C(=O)O; Orn = NCCC[C@H](N)C(=O)O; NH(CH2)5NH2 = NCCCCCN*; NH(CH2)3NH2 = NCCCN*; Ava = NCCCCC(=O)O

Legend:
GP IIb IIIa [1] = target: T1, GP IIb IIIa (Homo sapiens, UniProt P05106+P08514); test: GP IIb IIIa -von Willebrand factor (vWF) ELISA Assay; assay type: binding; set-up: GP IIb IIIa, prepared by the method of Fitzgerald et al; from tissue
T1 sequence (P08514 32-887 limits assumed): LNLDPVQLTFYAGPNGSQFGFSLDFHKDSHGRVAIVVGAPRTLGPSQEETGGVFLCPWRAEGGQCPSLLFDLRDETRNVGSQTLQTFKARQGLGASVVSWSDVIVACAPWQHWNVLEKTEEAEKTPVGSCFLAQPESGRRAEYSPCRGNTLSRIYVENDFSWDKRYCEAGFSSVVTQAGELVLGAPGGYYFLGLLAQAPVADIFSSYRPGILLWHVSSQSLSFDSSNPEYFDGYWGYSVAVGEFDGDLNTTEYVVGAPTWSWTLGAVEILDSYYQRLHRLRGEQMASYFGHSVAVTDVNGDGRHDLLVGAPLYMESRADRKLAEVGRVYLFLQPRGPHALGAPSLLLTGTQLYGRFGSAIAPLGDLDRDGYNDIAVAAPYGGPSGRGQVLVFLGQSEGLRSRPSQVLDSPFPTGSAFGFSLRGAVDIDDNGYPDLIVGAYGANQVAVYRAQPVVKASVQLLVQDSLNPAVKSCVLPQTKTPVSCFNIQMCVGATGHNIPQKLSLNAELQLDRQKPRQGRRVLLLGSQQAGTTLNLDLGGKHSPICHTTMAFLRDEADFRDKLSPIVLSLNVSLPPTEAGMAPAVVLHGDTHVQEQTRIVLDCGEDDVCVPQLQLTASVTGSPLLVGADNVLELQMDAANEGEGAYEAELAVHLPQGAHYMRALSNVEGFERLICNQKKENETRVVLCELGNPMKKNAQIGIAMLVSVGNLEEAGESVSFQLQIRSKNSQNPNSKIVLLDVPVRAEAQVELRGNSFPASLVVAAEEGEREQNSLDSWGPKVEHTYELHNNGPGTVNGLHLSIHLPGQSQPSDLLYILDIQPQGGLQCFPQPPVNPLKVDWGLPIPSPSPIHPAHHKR
T1 sequence (P08514 891-1039 partner limits assumed): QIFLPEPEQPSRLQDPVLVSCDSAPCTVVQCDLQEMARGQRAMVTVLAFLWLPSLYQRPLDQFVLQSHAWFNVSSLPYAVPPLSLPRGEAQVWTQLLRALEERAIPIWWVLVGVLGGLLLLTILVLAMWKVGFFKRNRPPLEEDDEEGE
T1 sequence (P05106 27-788): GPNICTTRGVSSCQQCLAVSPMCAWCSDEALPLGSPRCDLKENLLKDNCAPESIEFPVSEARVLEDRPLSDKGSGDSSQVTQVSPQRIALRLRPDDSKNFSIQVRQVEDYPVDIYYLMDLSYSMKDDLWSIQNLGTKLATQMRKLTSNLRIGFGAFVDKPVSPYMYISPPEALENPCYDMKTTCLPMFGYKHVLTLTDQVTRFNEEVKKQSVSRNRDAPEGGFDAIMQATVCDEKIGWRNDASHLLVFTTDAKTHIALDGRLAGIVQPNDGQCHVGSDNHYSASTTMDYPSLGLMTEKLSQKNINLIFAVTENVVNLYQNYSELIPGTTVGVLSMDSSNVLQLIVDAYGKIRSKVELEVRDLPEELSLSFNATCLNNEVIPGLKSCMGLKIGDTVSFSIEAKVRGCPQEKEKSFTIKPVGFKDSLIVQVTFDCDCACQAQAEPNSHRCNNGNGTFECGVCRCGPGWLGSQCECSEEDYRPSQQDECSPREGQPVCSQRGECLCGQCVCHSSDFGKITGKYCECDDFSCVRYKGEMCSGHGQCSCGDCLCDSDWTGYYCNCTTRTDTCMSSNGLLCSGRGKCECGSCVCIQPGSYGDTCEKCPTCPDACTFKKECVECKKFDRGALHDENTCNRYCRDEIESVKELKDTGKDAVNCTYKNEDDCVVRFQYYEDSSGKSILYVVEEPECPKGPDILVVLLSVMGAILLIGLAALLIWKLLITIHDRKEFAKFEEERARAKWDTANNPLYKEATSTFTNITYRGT
Method: Microtiter plates are coated with 1.0 μg/ml GP IIb IIIa, prepared by the method of Fitzgerald et al., (Anal. Biochem. 151:169-177 [1985]) and allowed to incubate overnight in coat buffer. The plates are then washed three times in wash buffer (0.05% Tween 20 in PBS) and 150 μl of assay buffer is added and allowed to incubate for 1-2 hours at room temperature on plate shaker. The plates are washed three times and 50 μl of 2x inhibitor in assay buffer (Assay buffer: 0.5% BSA/50 mM Tris, 100 mM NaCl, 1.0 mM CaCl2, 1.0mM MgCl2, 1.0 mM MnCl2; coat buffer is the same but without BSA) is added. Fifty μl of 4.0 μg/ml vWF (prepared as described by Ledford et al., Thrombosis and Haemostasis, 64(4): 569-575 [1990]) in assay buffer is then added and allowed to incubate for one hour at room temperature on plate-shaker. The plates are washed three times and the antibody mixture is added (1:5000 of mouse anti-vWF and 1:5000 of rabbit-anti-mouse-Fc-HRP, both commercially available) in assay buffer and incubated for 1 hour at room temperature on plate-shaker. Plates are again washed three times and 100 μl of substrate solution (10 mg OPD, 6.5 μl H2 O2, 15 ml phosphate citrate buffer) is added and incubated at room temperature. The color change of OPD/H2 O2 reagent is read at 492 nm with a 405 nm reference wavelength on the filter photometer.

GP IIb IIIa [2] = target: T1, GP IIb IIIa; test: Fibrinogen-GP IIb IIIa Receptor ELISA Binding Assay; set-up: from tissue; host or cells: outdated human platelets; settings: purified human platelet GP IIb IIIa, fibrinogen-coated plates; read-out: ELISA IC50 Fibrinogen GPIIb IIIa
Method: The method used is essentially that described in Nachman and Leung (J. Clin. Invest., 69:263-269 [1982]). The GP IIb IIIa is essentially purified as described in Fitzgerald et al., (Anal. Biochem. 151:169-177 [1985]).
Outdated human platelets are washed 3 times with 10 mM tris-HCl, 150 mM NaCl (TBS), 1 mM EDTA, pH 7.5, and centrifuged at 2000×g to pellet cells. Cells are lysed in 5 pellet volumes of TBS, 1% Triton X-100, 1 mM Ca2 Cl2, and followed by centrifugation at 30,000×g. The supernatant fraction is collected and the supernatant is loaded onto a concanavalin-A column, previously equilibrated in TBS, 1 mM Ca2 Cl2, 0.1% Triton, 0.05% NaN3 and eluted with 0.2M α-methylmannoside. Fractions are pooled and loaded onto a heparin-agarose column. The flowthrough is collected and concentration on an Amicon YM 30 filter to a volume of approximately 5-10 mi. The concentrate is then applied to an S-300 column (500 ml) and 6 ml fractions are collected. The GP IIb IlIa containing fractions are collected, pooled, and stored at -80° C.
The purification of fibrinogen is conducted essentially as described by Lipinska et al., (J. Lab. Clin. Med. 507, [1974]). Briefly, a 0.3% w/v solution of human fibrinogen (Kabi #5302) is dissolved in 150 mM NaCl. Saturated (NH4)2 SO4 is added dropwise with stirring to the fibrinogen solution to obtain about 16% saturation. The precipitate is spun down in appropriate size bottles at 2000×g. The supernatant is decanted and the precipitate resuspended in 150 mM NaCl (approximately 50% of the original volume). NH4 SO4 is again added dropwise to obtain 16% saturation. The suspension is spun down and the precipitate is resuspended in Tris-saline in a minimal volume (approximately 5% of the original volume). Any remaining insoluble material is spun down at 2000 rpm in a Sorval type centrifuge and the fibrinogen supernatant is decanted and dialyzed overnight at 4° C. against Tris-saline. Characterization of the fibrinogen is by the Bradford protein assay, SDS-PAGE, and/or Western blotting using well known standard procedures.
Briefly, 96 well plates are coated (Type Nunc 1 Maxisorp™) with 10 μg/ml purified fibrinogen (100 μl/well), and allowed to stand overnight at 4° C. The plates are washed three times with PBS Tween (0.137M NaCl, 0.003M KCl, 0.008M Na2 HPO4, 0.001M KH2 PO4, pH 7.4 at room temperature, 0.05% Tween-20) and blocked for 1 to 2 hours at room temperature with 200 μl/well TNCNT (which is 0.5% BSA, 20mM Tris, pH 7.5 at room temperature, 120 mM NaCl, 0.2% NAN3, 2mM CaCl2, 0.05% Tween 20, 0.5% BSA [Calbiochem RIA grade or better]) on a plate shaker. The plates are again washed three times with PBS/Tween and then 50 μl of sample in TNCNT is added. The mixture is incubated for 15 minutes at room temperature on a plate shaker. The stock solution of purified GP IIb IIIa receptor from human platelets, (0.4-1.0 mg/ml GP IIb IIIa in 0.1% Triton X-100, 1 mM CaCl2, 20 mM Tris, 150 mM NaCl, 0.05% NaN3 in 0.3M N-acetyl glucosamine pH 7.5, stored at -70° C.), is reconstituted to about 40 μg/ml in TNCNT. Fifty μl of this diluted GP IIb IIIa is then added to each well and incubated on a plate shaker at room temperature. After one hour, the plates are washed four times with PBS/Tween and 100 μl of a polyclonal or monoclonal antibody specific for GP IIIa such as AP3 (1 μg/ml) (See e.g. Newman et al., Blood, 65:227-232 [1985]) in ELISA buffer (PBS, 0.5% BSA, 0.05% Tween 20, 0.01% Thimerasol) is added. After a one hour incubation at room temperature on a plate shaker, the samples are washed 4 times with PBS/Tween. One hundred μl of GAM-HRP (horse radish peroxidase conjugate of goat anti-mouse IgG [Pel-Freeze Cat. 715305-1] dissolved in ELISA buffer) previously diluted to 1:10,000 is then added and the samples are incubated 1 hour at room temperature on a plate shaker. […]

[3] = GP IIb IIIa-coated plates, vWF, read-out: ELISA IC50 GPIIb IIIa vWF

`N=C(N)NCCC[C@@H]1NC(=O)[C@@H](Cc2ccc(O)cc2)NC(=O)CCC[C@@H](C(=O)N[C@@H](CCCCN)C(N)=O)NC(=O)[C@H](CC(=O)O)NC(=O)CNC1=O` [10/20, cyclo(1-5)dTyr--Arg--Gly--Asp--L-α-aminoadipic acid-Lys--NH2] ([dY]RGD[Aad]K-NH2; lactam N-5) showed an IC50 (GP IIb IIIa [1]; [3]) of 2.74 nM and an IC50 (GP IIb IIIa [2]) of 12.4 nM.

`CC1(C)SCC(=O)N[C@H](Cc2ccc(O)cc2)C(=O)N[C@@H](CCCCN)C(=O)NCC(=O)N[C@@H](CC(=O)O)C(=O)N[C@@H]1C(=O)N[C@@H](CCCNC(=N)N)C(N)=O` [7/16, cyclo-S-acetyl-dTyr--Lys--Gly--Asp--Pen--Arg--NH2] ({CH2CO}-[dY]KGD[Pen]R-NH2; thioether N-5) was tested, and the IC50 (GP IIb IIIa [1]; [3]) was 53.5 nM and the IC50 (GP IIb IIIa [2]) was 150 nM.

`N=C(N)NCCC[C@@H]1NC(=O)[C@@H](Cc2ccc(O)cc2)NC(=O)CSC[C@@H](C(=O)NCCCCCN)NC(=O)[C@H](CC(=O)O)NC(=O)CNC1=O` [8/13, cyclo-S-acetyl-dTyr--Arg--Gly--Asp--Cys--NH--X (X = pentylamine)] ({CH2CO}-[dY]RGDC-{NH(CH2)5NH2}; thioether N-5) gave an IC50 (GP IIb IIIa [1]; [3]) of 5.3 nM and an IC50 (GP IIb IIIa [2]) of 9 nM.

Work on `N=C(N)NCCC[C@@H]1NC(=O)[C@@H](Cc2ccc(O)cc2)NC(=O)CSC[C@@H](C(=O)NCCCCC(=O)O)NC(=O)[C@H](CC(=O)O)NC(=O)CNC1=O` [7/28, cyclo-S-(1-5)-dTyr--Arg--Gly--Asp--Cys--X (X = aminovaleric acid)] ({CH2CO}-[dY]RGDC[Ava]-OH; thioether N-5) yielded an IC50 (GP IIb IIIa [2]) of 70 nM.

With `N=C(N)NCCC[C@@H]1NC(=O)[C@@H](Cc2ccc(O)cc2)NC(=O)CSC[C@@H](C(=O)NCCCN)NC(=O)[C@H](CC(=O)O)NC(=O)CNC1=O` [8/22, cyclo-S-acetyl-dTyr--Arg--Gly--Asp--Cys--NH--X (X = propyl amine)] ({CH2CO}-[dY]RGDC-{NH(CH2)3NH2}; thioether N-5) the IC50 (GP IIb IIIa [1]; [3]) was 4.73 nM and the IC50 (GP IIb IIIa [2]) was 15 nM.

`N=C(N)NCCC[C@@H]1NC(=O)[C@@H](Cc2ccc(O)cc2)NC(=O)C(CCCCN)SC[C@@H](C(=O)O)NC(=O)[C@H](CC(=O)O)NC(=O)CNC1=O` (single isomer, unassigned) [9/10, cyclo-S-2-L-(6-aminocaproyl)-Lys--dTyr--Arg--Gly--Asp--Cys--OH] was tested, and the IC50 (GP IIb IIIa [1]; [3]) was 0.785 nM and the IC50 (GP IIb IIIa [2]) was 5.3 nM.

Compound `N=C(N)NCCC[C@@H]1NC(=O)[C@@H](Cc2ccc(O)cc2)NC(=O)CSC[C@@H](C(=O)N[C@@H](CCCN)C(N)=O)NC(=O)[C@H](CC(=O)O)NC(=O)CNC1=O` [7/5, cyclo-S-acetyl-dTyr--Arg--Gly--Asp--Cys--Orn--NH2] ({CH2CO}-[dY]RGDC[Orn]-NH2; thioether N-5) has an IC50 (GP IIb IIIa [1]; [3]) of 6.84 nM and an IC50 (GP IIb IIIa [2]) of 11 nM.

`N=C(N)NCCC[C@@H]1NC(=O)[C@@H](Cc2ccc(O)cc2)NC(=O)CSC[C@@H](C(=O)N[C@H](CCCNC(=N)N)C(N)=O)NC(=O)[C@H](CC(=O)O)NC(=O)CNC1=O` [7/2, cyclo-S-acetyl-dTyr--Arg--Gly--Asp--Cys--dArg--NH2] ({CH2CO}-[dY]RGDC[dR]-NH2; thioether N-5) was tested, and the IC50 (GP IIb IIIa [1]; [3]) was 2.93 nM and the IC50 (GP IIb IIIa [2]) was 13.5 nM.

In the case of `N=C(N)NCCC[C@@H]1NC(=O)[C@@H](Cc2ccc(O)cc2)NC(=O)CSC[C@@H](C(=O)N[C@@H](CCCCN)C(N)=O)NC(=O)[C@H](CC(=O)O)NC(=O)CNC1=O` [7/3, cyclo-S-acetyl-dTyr--Arg--Gly--Asp--Cys--Lys--NH2] ({CH2CO}-[dY]RGDCK-NH2; thioether N-5), the IC50 (GP IIb IIIa [1]; [3]) is reported as 15.9 nM and the IC50 (GP IIb IIIa [2]) is reported as 17 nM.

With `N=C(N)NCCC[C@@H]1NC(=O)[C@@H](Cc2ccc(O)cc2)NC(=O)CSC[C@@H](C(=O)N[C@H](CCCCN)C(N)=O)NC(=O)[C@H](CC(=O)O)NC(=O)CNC1=O` [7/4, cyclo-S-acetyl-dTyr--Arg--Gly--Asp--Cys--dLys--NH2] ({CH2CO}-[dY]RGDC[dK]-NH2; thioether N-5) the IC50 (GP IIb IIIa [1]; [3]) was 1.56 nM and the IC50 (GP IIb IIIa [2]) was 8.3 nM.

With `N=C(N)NCCC[C@@H]1NC(=O)[C@@H](Cc2ccc(O)cc2)NC(=O)CSC[C@@H](C(=O)N[C@@H](CCC(N)=O)C(N)=O)NC(=O)[C@H](CC(=O)O)NC(=O)CNC1=O` [7/27, cyclo-S-acetyl-dTyr--Arg--Gly--Asp--Cys--Gln--NH2] ({CH2CO}-[dY]RGDCQ-NH2; thioether N-5) the IC50 (GP IIb IIIa [2]) was 3.1 nM.

For `N=C(N)NCCC[C@@H]1NC(=O)[C@@H](Cc2ccc(O)cc2)NC(=O)CSC[C@@H](C(=O)O)NC(=O)[C@H](CC(=O)O)NC(=O)CNC1=O` [7/46, cyclo-S-acetyl-dTyr--Arg--Gly--Asp--Cys--OH] ({CH2CO}-[dY]RGDC-OH; thioether N-5), the IC50 (GP IIb IIIa [1]; [3]) was 0.18 nM and the IC50 (GP IIb IIIa [2]) was 3.2 nM.

`N=C(N)NCCC[C@H](NC(=O)[C@@H]1CSCC(=O)N[C@H](Cc2ccc(O)cc2)C(=O)N[C@@H](CCCNC(=N)N)C(=O)NCC(=O)N[C@@H](CC(=O)O)C(=O)N1)C(N)=O` [7/1, cyclo-S-acetyl-dTyr--Arg--Gly--Asp--Cys--Arg--NH2] ({CH2CO}-[dY]RGDCR-NH2; thioether N-5) showed an IC50 (GP IIb IIIa [1]; unit inferred, read-out: IC50 in the GPIIb IIIa -vWF ELISA) of 13.8 nM and an IC50 (GP IIb IIIa [2]) of 10 nM.

`N=C(N)NCCC[C@@H]1NC(=O)[C@@H](Cc2ccc(O)cc2)NC(=O)CSC[C@@H](C(=O)N[C@H](CCCN)C(N)=O)NC(=O)[C@H](CC(=O)O)NC(=O)CNC1=O` [7/6, cyclo-S-acetyl-dTyr--Arg--Gly--Asp--Cys--dOrn--NH2] ({CH2CO}-[dY]RGDC[dOrn]-NH2; thioether N-5) was tested, and the IC50 (GP IIb IIIa [1]; [3]) was 1.92 nM and the IC50 (GP IIb IIIa [2]) was 10.5 nM.

`N=C(N)NCCC[C@H](NC(=O)[C@H](Cc1ccc(O)cc1)NC(=O)[C@@H]1CSCC(=O)N[C@H](Cc2ccc(O)cc2)C(=O)N[C@@H](CCCNC(=N)N)C(=O)NCC(=O)N[C@@H](CC(=O)O)C(=O)N1)C(N)=O` [7/7, cyclo-S-acetyl-dTyr--Arg--Gly--Asp--Cys--Tyr--Arg--NH2] ({CH2CO}-[dY]RGDCYR-NH2; thioether N-5) was tested, and the IC50 (GP IIb IIIa [2]) was 8.9 nM.
